# Experiments:
# [1] = tested on: lymphocytes in peripheral blood; assay: Lymphopenic action in cerebral aneurysm model; type: in vivo, SD rat; details: 0.03 mg/5 mL or 0.1 mg/5 mL suspension, 5 mL/kg, forced oral, once a day, Day 1 to Day 27; blood collected Day 28; FIG. 2
# Protocol: A rat model of cerebral aneurysm was prepared according to the method disclosed on the literature by Hashimoto et al. (Surgical Neurology 1978, Vol. 10, p. 3-8). Namely, 50 mg/kg of pentobarbital was administrated intraperitoneally to a 7-week-old male SD rat, and the left common carotid artery and the left renal artery were ligated by using 10-0 nylon thread under anesthesia (this is referred to as the surgery for inducing cerebral aneurysm). From the day after surgery (Day 1), the rat was reared with being fed a high-salt diet. During a rearing period, the rat was given free access to water. Forced oral administration of 0.03 mg/5 mL or 0.1 mg/5 mL of the suspension of Compound 1 to the cerebral aneurysm model was conducted once a day at a dose of 5 mL/kg from 1 day after surgery (Day 1) to 27 days after surgery (Day 27). It should be noted that forced oral administration of the 0.5% MC solution (0 mg/5 mL of the suspension of Compound 1) to the cerebral aneurysm model was conducted once a day at a dose of 5 mL/kg. The group of these rats was defined as a vehicle group. […] The number of lymphocytes in the collected blood was counted by using a blood test system (Advia 120, Siemens Healthcare Diagnostics) according to the manual of the system.
# macrophages = assay: Macrophages infiltrating cerebral aneurysm walls in the enlargement study; type: in vivo, SD rat; details: 0.1 mg/5 mL suspension, forced oral, once a day from Day 7; 49 days after surgery (Week 7); FIG. 10
# Protocol: Immunostaining of macrophages (F4/80-positive cells) was conducted on the prepared section as described below. As a primary antibody solution, a solution in which a rat anti-F4/80 antibody [BM8](AB16911: Abcam) was diluted with a phosphate buffer by 100 times was prepared. As a secondary antibody solution, a solution in which an alexa 488-conjugated donkey anti-rat IgG antibody (Invitrogen) was diluted with a phosphate buffer by 100 times was prepared. The section was allowed to react in the primary antibody solution at 4° C. for 16 hours, washed with a phosphate buffer, and thereafter, was allowed to react in the secondary antibody solution at room temperature for 1 hour. […] In addition, macrophages (F4/80-positive cells) stained green at the peripheries of nuclei (blue) were observed therein (in monochrome FIG. 3A, portions with a higher degree of whiteness). Under the observation with a confocal microscope, the number of macrophages was counted in an area of 100 μm square centered around the cerebrovascular bifurcation where cerebral aneurysm developed. The measurement was conducted on five rats and the mean value was calculated. […] In addition, 49 days after surgery (Week 7), the number of macrophages infiltrating cerebral aneurysm walls was counted according to the procedure of Reference Example 4 under the observation with a confocal microscope.
# [2] = tested on: Human carotid artery endothelial cells HCtAEC; assay: Permeability of endothelial cells (Transwell, FITC-dextran); type: cell-based; details: 0.1 nM, 1 nM, 10 nM, or 100 nM; 60 minutes pre-culture; fluorescence after 5, 60 and 210 minutes; FIG. 14
# Protocol: Human carotid artery endothelial cells […] (Cell Applications) were seeded in the upper compartment of Transwell (diameter: 6.5 mm, pore size: 0.4 μm, collagen-Coated: Corning) so that the cell density was 1×10^5 cells/well, and the cells were cultured overnight in MesoEndo Growth Medium (Cell Applications) under a 5% CO2 atmosphere at 37° C. The medium was replaced with Endothelial Cell Serum-Free Defined Medium (Cell Applications), and the cells were further cultured overnight under the CO2 atmosphere at 37° C. Then, Compound 1 was added to the upper compartment and the lower compartment of Transwell so that the final concentration was 0 nM, 0.1 nM, 1 nM, 10 nM, or 100 nM, and the cells were cultured continuously. The well to which Compound 1 was not added was defined as a control. After culturing for 60 minutes, 250 μg/mL of fluorescein isothiocyanate (FITC)-dextran (2,000 kDa: Sigma-Aldrich) was added to the upper compartment of Transwell, and the amount of FITC-dextran which permeated into the lower compartment was determined by measuring the fluorescence intensity of the medium in the lower compartment after 5 minutes, 60 minutes, and 210 minutes.
compound,measurement,setting,value
"C[C@H](Oc1ccc(-c2nc(-c3ccc4[nH]cnc4c3)no2)cc1C(F)(F)F)C(F)(F)F.Cl [Compound 1, 5-{5-[3-(trifluoromethyl)-4-{[(2S)-1,1,1-trifluoropropan-2-yl]oxy}phenyl]-1,2,4-oxadiazol-3-yl}-1H-benzimidazole hydrochloride]",number of lymphocytes in peripheral blood,[1],decreased the number of lymphocytes in peripheral blood in a concentration-dependent manner
same,number of macrophages infiltrating cerebral aneurysm walls,macrophages,decreased the number of macrophages at the site where cerebral aneurysm was induced
same,amount of FITC-dextran which permeated into the lower compartment (permeability of endothelial cells),[2],decreased the amount of FITC-dextran which permeated into the lower compartment in a concentration-dependent manner

# — US9629834B2, “Medicinal composition for inhibiting formation and/or enlargement of cerebral aneurysm or shrinking same” (KYOTO UNIVERSITY, priority 2013, dated 2017)
